# Test results reported in ChEMBL document CHEMBL1201862, “PubChem BioAssay data set” (2004).
# The source made the active and inactive calls.
# Key:
# [1] = target: T1, Calpain-2 catalytic subunit (Sus scrofa, UniProt P43367); assay: pig calpain II inhibitor potency, dose response, biochemical, fluorogenic peptide substrate (AID 1420); format: functional
# T1 sequence (P43367 whole entry): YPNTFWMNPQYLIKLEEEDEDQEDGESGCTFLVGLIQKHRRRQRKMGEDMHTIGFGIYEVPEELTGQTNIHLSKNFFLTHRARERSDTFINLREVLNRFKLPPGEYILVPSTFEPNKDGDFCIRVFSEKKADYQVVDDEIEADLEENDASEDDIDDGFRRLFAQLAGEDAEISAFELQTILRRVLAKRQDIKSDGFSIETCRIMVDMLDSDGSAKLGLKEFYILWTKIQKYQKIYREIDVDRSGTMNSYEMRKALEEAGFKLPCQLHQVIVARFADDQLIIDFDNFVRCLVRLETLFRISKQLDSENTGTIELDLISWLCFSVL
# [2] = system: Vero; assay: cells; format: functional; details: Chlorocebus sabaeus
# [3] = target: T2, Protein RecA (Mycobacterium tuberculosis, UniProt P9WHJ3); assay: Fluorescence Cell-Free Homogeneous Dose Retest to Identify Inhibitors of RecA-Intein Splicing Activity. [Related pubchem assays (depositor defined):AID2097, AID2223, AID489010, AID492950]; format: functional
# T2 sequence (P9WHJ3 whole entry): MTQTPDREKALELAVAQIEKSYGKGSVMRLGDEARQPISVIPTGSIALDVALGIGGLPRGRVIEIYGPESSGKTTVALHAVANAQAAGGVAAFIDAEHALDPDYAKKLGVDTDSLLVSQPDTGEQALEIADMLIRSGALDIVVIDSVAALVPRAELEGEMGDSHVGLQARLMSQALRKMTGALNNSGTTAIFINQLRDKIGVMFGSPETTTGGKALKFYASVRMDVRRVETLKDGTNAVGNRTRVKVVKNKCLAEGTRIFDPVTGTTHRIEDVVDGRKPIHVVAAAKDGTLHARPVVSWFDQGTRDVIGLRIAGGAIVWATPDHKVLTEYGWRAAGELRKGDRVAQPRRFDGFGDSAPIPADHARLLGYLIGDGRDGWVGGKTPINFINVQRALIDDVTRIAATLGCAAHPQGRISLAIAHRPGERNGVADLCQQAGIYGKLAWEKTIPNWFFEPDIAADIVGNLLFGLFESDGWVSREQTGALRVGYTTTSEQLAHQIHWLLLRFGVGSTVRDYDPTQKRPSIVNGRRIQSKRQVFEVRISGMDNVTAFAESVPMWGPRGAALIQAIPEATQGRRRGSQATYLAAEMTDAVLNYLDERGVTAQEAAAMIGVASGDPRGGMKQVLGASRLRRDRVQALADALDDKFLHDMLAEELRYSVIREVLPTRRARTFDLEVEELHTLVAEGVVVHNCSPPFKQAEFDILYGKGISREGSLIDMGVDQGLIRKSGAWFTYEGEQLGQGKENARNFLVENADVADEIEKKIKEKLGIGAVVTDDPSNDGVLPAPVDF
# [4] = target: T3, Replicative DNA helicase DnaB (Mycobacterium tuberculosis, UniProt P9WMR3); assay: DnaB intein splicing inhibitors, dose response, biochemical, cell-free fluorescence (AID 449749); format: functional
# T3 sequence (P9WMR3 whole entry): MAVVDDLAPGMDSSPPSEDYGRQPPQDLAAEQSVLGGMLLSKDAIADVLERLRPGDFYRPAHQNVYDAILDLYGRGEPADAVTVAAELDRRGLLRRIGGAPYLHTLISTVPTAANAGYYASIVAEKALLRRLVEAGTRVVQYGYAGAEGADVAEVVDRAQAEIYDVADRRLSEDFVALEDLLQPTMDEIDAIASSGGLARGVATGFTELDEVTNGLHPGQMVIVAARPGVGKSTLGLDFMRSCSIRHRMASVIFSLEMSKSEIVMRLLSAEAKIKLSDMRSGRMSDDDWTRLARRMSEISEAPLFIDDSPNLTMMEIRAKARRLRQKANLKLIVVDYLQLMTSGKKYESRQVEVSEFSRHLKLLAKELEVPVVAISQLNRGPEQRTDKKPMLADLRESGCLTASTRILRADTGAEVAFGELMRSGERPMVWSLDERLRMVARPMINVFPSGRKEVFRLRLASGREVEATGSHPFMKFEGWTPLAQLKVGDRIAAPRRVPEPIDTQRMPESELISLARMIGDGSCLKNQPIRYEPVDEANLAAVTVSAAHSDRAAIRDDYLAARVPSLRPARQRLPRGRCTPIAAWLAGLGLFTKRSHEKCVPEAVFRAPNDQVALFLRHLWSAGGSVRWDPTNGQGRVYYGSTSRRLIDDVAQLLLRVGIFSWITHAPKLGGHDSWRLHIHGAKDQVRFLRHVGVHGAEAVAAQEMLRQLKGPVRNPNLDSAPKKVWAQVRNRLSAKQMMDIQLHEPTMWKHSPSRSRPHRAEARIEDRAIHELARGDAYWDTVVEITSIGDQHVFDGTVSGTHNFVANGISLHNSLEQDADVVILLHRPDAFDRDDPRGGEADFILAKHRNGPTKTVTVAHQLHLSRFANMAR
# [5] = HepG2 cell cytotoxicity, dose response, cytotoxicity control for Shn3 inhibitor project, CellTiter-Glo, cherry-picked (AID 624134); format: functional, cell-based
# [6] = target: T4, Heat shock factor protein 1 (Mus musculus, UniProt P38532); assay: inhibition of MG132-induced HSE-luciferase signal, confirmation, cell-based, NIH3T3, luminescence, dose retest (AID 2382); format: functional;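 further: NIH3T3 fibroblasts with HSF1-driven luciferase reporter stressed by proteasome inhibitor MG132; luminescence from HSF1-driven luciferase expression after 8 hours of MG132 stress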
# T4 sequence (P38532 whole entry): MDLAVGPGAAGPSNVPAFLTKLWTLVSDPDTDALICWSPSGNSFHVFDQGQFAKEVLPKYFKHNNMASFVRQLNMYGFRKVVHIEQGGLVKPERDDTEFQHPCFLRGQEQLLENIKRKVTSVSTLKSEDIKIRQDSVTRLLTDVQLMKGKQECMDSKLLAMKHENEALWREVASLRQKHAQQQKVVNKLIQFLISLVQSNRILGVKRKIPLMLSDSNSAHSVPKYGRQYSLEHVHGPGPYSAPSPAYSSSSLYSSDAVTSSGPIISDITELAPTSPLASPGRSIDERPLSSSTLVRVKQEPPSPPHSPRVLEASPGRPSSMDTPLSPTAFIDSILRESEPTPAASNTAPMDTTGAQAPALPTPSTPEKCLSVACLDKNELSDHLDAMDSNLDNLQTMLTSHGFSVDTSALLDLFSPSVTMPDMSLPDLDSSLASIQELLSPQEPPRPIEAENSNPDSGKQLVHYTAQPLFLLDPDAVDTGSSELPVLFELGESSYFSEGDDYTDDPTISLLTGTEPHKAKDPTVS
# [7] = system: INS1; assay: beta cell apoptosis inhibitors, cytokine rescue, dose response, luminescence, retest (AID 449756); format: functional, cell-based; details: Rattus norvegicus;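 further: cell death triggered by IL-1 beta plus TNF-alpha plus IFN-gamma mixture; protective hits raise ATP signal compared with cytokine alone wells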
# [8] = Shn3 3'UTR reporter inhibitors, dose response, cell-based, Clone20 osteoblasts, firefly luciferase, cherry-picked (AID 624132); format: functional;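 further: firefly luciferase luminescence from reporter carrying the Shn3 3'UTR in osteoblasts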
# [9] = control 3'UTR Renilla luciferase suppression, dose response, counter-screen for Shn3 inhibitor project, cell-based, Clone20-Shn3RL, cherry-picked (AID 624133); format: functional
# [10] = target: T5, Corticotropin-releasing factor receptor 2/Corticotropin-releasing factor-binding protein (Homo sapiens, UniProt P24387+Q13324); assay: Dose Response confirmation of uHTS hits for small molecule antagonists of the CRF-binding protein and CRF-R2 receptor complex.; format: functional; details: read-out: IC50_Mean
# T5 sequence (Q13324 whole entry): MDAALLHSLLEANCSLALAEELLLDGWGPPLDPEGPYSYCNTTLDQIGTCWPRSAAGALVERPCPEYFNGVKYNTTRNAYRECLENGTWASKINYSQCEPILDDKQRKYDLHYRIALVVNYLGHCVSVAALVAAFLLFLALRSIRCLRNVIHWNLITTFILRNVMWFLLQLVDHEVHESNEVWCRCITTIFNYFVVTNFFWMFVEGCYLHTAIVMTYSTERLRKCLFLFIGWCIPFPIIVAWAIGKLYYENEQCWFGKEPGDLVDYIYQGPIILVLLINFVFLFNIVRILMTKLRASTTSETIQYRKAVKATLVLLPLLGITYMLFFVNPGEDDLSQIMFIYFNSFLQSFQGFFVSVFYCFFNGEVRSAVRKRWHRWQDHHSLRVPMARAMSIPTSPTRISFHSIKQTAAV
# T5 sequence (P24387 whole entry): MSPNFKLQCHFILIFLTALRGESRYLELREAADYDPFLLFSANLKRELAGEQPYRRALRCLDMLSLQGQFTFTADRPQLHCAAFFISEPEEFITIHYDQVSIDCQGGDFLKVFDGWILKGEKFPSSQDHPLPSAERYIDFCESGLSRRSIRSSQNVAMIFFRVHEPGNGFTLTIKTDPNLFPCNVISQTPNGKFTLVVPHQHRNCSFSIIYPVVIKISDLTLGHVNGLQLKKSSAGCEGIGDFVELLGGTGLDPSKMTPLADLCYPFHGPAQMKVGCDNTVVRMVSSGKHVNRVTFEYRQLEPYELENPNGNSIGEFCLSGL
# [11] = target: T5, Corticotropin-releasing factor receptor 2/Corticotropin-releasing factor-binding protein; assay: activators of CRF receptor 2 with binding protein – uHTS hits, confirmation (AID 602473); format: functional; details: read-out: EC50_Mean
# [12] = system: Streptococcus sp. 'group A'; assay: growth inhibition of control SK(-) GAS strain, dose response, counter-screen for streptokinase expression inhibitor project, luminescence, kanamycin, BacTiterGlo, confirmation (AID 1900); format: functional, organism-based
# [13] = system: Streptococcus; assay: Group A Streptococcus viability loss, dose response, counter-screen for streptokinase expression inhibitor project, luminescence, BacTiterGlo (AID 1915); format: functional, organism-based;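 further: potency for reduction of bacterial viability or growth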
# [14] = target: T6, Streptokinase A (Streptococcus pyogenes serotype M1, UniProt P10520); assay: S. pyogenes streptokinase expression inhibitors, potency, dose response, plasminogen activation absorbance, OD405 (AID 1914); format: functional, Streptococcus pyogenes M1 GAS;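 further: secreted streptokinase activity via plasminogen activation per viability signal from cell pellet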
# T6 sequence (P10520 whole entry): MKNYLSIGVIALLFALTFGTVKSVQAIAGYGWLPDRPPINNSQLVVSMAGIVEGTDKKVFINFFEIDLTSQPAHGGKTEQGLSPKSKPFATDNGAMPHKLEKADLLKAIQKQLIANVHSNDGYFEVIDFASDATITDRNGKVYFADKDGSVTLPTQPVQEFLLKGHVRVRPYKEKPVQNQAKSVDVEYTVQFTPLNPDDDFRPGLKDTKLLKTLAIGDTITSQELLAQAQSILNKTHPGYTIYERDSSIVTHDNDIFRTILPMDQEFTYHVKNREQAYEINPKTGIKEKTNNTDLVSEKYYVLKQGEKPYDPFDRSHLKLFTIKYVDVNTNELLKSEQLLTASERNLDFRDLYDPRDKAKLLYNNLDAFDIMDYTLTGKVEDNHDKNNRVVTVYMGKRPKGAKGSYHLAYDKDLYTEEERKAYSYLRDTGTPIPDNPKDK
structure (smiles),measurement,setting,value
CC(C)CCNC(=O)C12CN(Cc3ccccc3)CC1C(c1ccc([N+](=O)[O-])cc1)=NO2 (stereo not drawn),IC50,[1],7.38 µM (not active)
O=C(CCl)N1N=C(c2ccco2)CC1c1ccco1 (stereo not drawn),CC50,[2],9.82 µM (active)
same,EC50,[3],9.97 µM (active)
same,AC50,[4],> 380 µM (inactive)
Cc1cccc2c(C(=O)N3CCN(c4ccccn4)CC3)cc(-c3cccc(Br)c3)nc12,AC50,[5],45.4 µM (active)
same,EC50,[6],> 195 µM (not active)
same,AC50,[7],3.73 µM (active)
same,AC50,[8],6.48 µM (active)
O=C(NNC(=O)c1cccc(S(=O)(=O)N2CCc3ccccc32)c1)c1ccccc1,AC50,[5],46.2 µM (active)
same,AC50,[9],3.89 µM (active)
same,AC50,[8],1.52 µM (active)
O=C(OCCN1C(=O)c2ccccc2C1=O)c1ccc(S(=O)(=O)N2CCCCCC2)cc1,IC50,[1],> 50 µM (not active)
Nn1c(SCC(=O)NC(=O)Nc2ccc3c(c2)OCCO3)nnc1C1CC1,IC50,[1],9.49 µM (not active)
Cc1cc(C)c(S(=O)(=O)Nc2ccc3c(c2)CCC3)c(C)c1,IC50,[1],11.4 µM (not active)
CC(C)Nc1nnc(Sc2ccc(Cl)cc2[N+](=O)[O-])s1,IC50,[1],4.91 µM (not active)
same,EC50,[6],> 195 µM (not active)
COc1ccc(C)cc1S(=O)(=O)N1CCN(S(=O)(=O)c2cc(C)ccc2OC)CC1,IC50,[10],> 47.1 µM (inactive)
same,EC50,[11],> 53 µM (inactive)
COC(=O)C1=C(C)N(C)C(C)=C(C(=O)OC)C1c1ccc(F)c(Br)c1,IC50,[10],> 47.1 µM (inactive)
same,EC50,[11],> 53 µM (inactive)
CCCN(CCC)C(=O)CC(c1ccccc1)c1cc(Br)ccc1O (stereo not drawn),IC50,[1],16 µM (not active)
CC(C)(C)c1ccc(OCCNC(=S)Nc2ccccc2)cc1,IC50,[1],8.08 µM (not active)
COc1cccc(NC(S)=NN=C2CCCCCC2)c1,EC50,[12],17.5 µM (active)
same,IC50,[1],> 50 µM (not active)
same,EC50,[13],> 150 µM (not active)
same,EC50,[14],> 150 µM (not active)
Cc1ccccc1N=C(S)Nc1cccc2cnccc12,AC50,[7],> 260 µM (inactive)
Cc1ccc(C)c(-c2csc(NC(=O)C3=COCCO3)n2)c1,AC50,[7],7.19 µM (active)
CC(C)(C)N(Cc1ccccc1)C(=O)CCc1ccccc1,IC50,[1],32.5 µM (not active)
CC(=O)N1CCN(C(=O)CCc2cc(C(C)(C)C)c(O)c(C(C)(C)C)c2)CC1,AC50,[9],14.5 µM (active)
same,AC50,[8],4.46 µM (active)
CC1C(=O)N(Cc2cn(CCC3OCCCO3)nn2)CCS(=O)(=O)N1Cc1ccc(-c2ccc(Cl)c(Cl)c2)cc1 (stereo not drawn),AC50,[5],> 70 µM (inactive)
same,AC50,[9],2.7 µM (active)
same,AC50,[8],3.39 µM (active)
C[C@H](NC(=O)c1ncn2c1c(O)nc1ccc(Br)cc12)c1ccccc1,AC50,[5],9.3 µM (active)
same,AC50,[9],16.2 µM (active)
same,AC50,[8],8.76 µM (active)
C/C(=N\NC(N)=S)c1ccncc1,AC50,[7],> 260 µM (inactive)
